According to patent US10098830B2, “Oral care compositions” (BASF SE, priority 2014, dated 2018):
Like-named read-outs stand apart in the source and are kept apart here.

How the values were obtained:
S. mutans (ATCC #25175) = experiment: Inhibition of bacterial acid production (Bromo Cresol Purple broth, OD 588 / OD 427); assay type: cell-based, Streptococcus mutans
Procedure: Method to observe the acid production of S. mutans in a medium containing a pH indicator and glucose. Observe how xylitol and the example polymers affect acid production. A culture of S. mutans (ATCC #25175) is grown statically overnight in 10 mL liquid broth (BHI) at 37° C. […] The no treatment control has 20 ul water added. To each experimental well 180 of the inoculated BCP broth is added. To the no inoculum control 20 ul water and 20 ul filter sterilized overnight culture broth are added. […] Both wavelengths are measured every hour for several hours but before evaporation became an issue. The plates are shaken for 10 seconds before reading.

[1] = system: multispecies saliva biofilm; experiment: Prevention of multispecies saliva biofilm development on hydroxy apatite pegs (Bac-titer-Glo); assay type: cell-based, pooled human saliva; settings: 2% xylitol
Procedure: Prevention of Biofilm Development Multispecies Saliva Biofilms: Hydroxy apatite (HA) coated surfaces of a 96 peg lid (Biosurface Technologies, Boseman, Mont.) are pellicle treated with pooled human saliva 200 μl/per well of a 96 well clear plate for 30 minutes at 37° C. aerobically. Into each well of the growth plate, clear 96 well plate, 160 μl inoculated Brain Heart Infusion (BHI) broth is added. Test solutions are added to a desired final concentration and water is added to bring the final volume to 200 μl. The hydroxyl apatite coated pegs are added to. […] Polymers are evaluated using the biofilm prevention method indicated above for both S. mutans and multispecies saliva derived biofilm.

S. mutans 25175 biofilm = experiment: Prevention of Streptococcus mutans biofilm development on hydroxy apatite pegs (Bac-titer-Glo); assay type: cell-based; settings: 2% xylitol
Procedure: Prevention of Biofilm Development S. mutans Biofilms: S. mutans 25175 is inoculated into 10 mL BHI and incubated statically at 37° C. overnight. […] Hydroxy apatite coated peg lids are pellicle treated with sterile artificial saliva 200 ul/per well of a 96 well clear plate for 30 minutes at 37° C. aerobic. […] Test solutions are added to a desired final concentration and water is added to bring the final volume to 200 ul. […] Polymers are evaluated using the biofilm prevention method indicated above for both S. mutans and multispecies saliva derived biofilm.

48 hour saliva biofilms = experiment: Disruption of established 48 hour saliva biofilms; assay type: cell-based, pooled human saliva; settings: for Disruption of 48 hour saliva biofilms after treatment for 5 minutes: Chelate control: 0.1% Trilon Ca
Procedure: Method to screen combinations of actives, example polymers and chelates to identify potential synergies for biofilm disruption.
Polystyrene Pegs are pellicle treated with fresh pooled human saliva for 30 minutes at 37° C. aerobically. Saliva is inoculated into BHI broth at a final concentration of 10% saliva. 200 ul of inoculated or uninoculated media is added to each well. The pegs are added to the growth media and incubated anaerobically 37° C.
At 24 hr. the pegs are removed and transferred to a fresh plate containing 200 ul of sterile BHI. And incubated anaerobically for another 24 hr at 37 C.
After 48 hr of growth time, pegs containing the biofilms are transferred to a 96 well rinse plate containing 200 ul of or BHI. Following a 5 minute rinse at room temperature, the pegs are transferred to a treatment plate containing combinations of actives, chelate and polymers. This is followed a 5 minute treatment (shaking at 500 rpm). The treated pegs are transferred to a white 96 well plate containing 200 ul Bac-titer-Glo reagent—this is incubated at room temperature for 5 minutes (shaking) and read on a plate reader for luminescence.
Polymers are evaluated using the Biofilm disruption model as described above.
Example polymers (xylitol-EDTA polymer and xylitol-arginine-succinic acid polymer) are combined with example actives (epsilon-polylysine and chlorhexidine) and a chelator (Ca EDTA).

[2] = system: multispecies saliva derived biofilm; experiment: Substantivity: multispecies saliva derived biofilm growth after 24 hr on pre-treated hydroxyl apatite surfaces; assay type: cell-based, human saliva; settings: for % decrease in biofilm as compared to growth control (negative indicates increased biofilm): saliva biofilm, 24 hr, pre-treated surface
Procedure: Method to evaluate the substantivity of polymers to hydroxyl apatite surfaces and the effects these polymers have on the growth of Streptococcus mutans and Saliva derived biofilms. For Multispecies Saliva Biofilms: Hydroxy apatite (HA) coated surfaces are pellicle treated with pooled human saliva 200 ul/per well of a 96 well clear plate for 30 minutes at 37° C. aerobically. […] The peg lids are transferred to a clear 96 well plate containing 200 ul of the designated treatments below in Jordan's with 5% sucrose. […] After 30 mins of treatment the two pegs are transferred to a 96 well plate containing 200 ul of water and it is rinsed for 10 min at 500 rpm. […] After incubation the peg lids are transferred to a rinse plate containing 200 ul of water for 5 minutes and then transferred to white 96 well plate containing 200 ul Bac-titer-Glo, this is shaken for 5 minutes and read for luminescence.

[3] = system: S. mutans (ATCC #25175) biofilm; experiment: Substantivity: Streptococcus mutans biofilm growth after 24 hr on pre-treated hydroxyapatite surfaces; assay type: cell-based; settings: pre-treated surface
Procedure: Method to evaluate the substantivity of polymers to hydroxyl apatite surfaces and the effects these polymers have on the growth of Streptococcus mutans and Saliva derived biofilms. For S. mutans Biofilms: S. mutans (ATCC #25175) is inoculated into 10 mL BHI and incubated statically at 37° C. overnight. […] Hydroxy apatite coated peg lids are pellicle treated with sterile artificial saliva 200 ul/per well of a 96 well clear plate for 30 minutes at 37° C. aerobic. The peg lids are transferred to a clear 96 well plate containing 200 ul of the designated treatments below in Jordan's with 5% sucrose. […] After 30 mins of treatment the two pegs are transferred to a 96 well plate containing 200 ul of water and it is rinsed for 10 min at 500 rpm. […] After incubation the peg lids are transferred to a rinse plate containing 200 ul of water for 5 minutes and then transferred to white 96 well plate containing 200 ul Bac-titer-Glo, this is shaken for 5 minutes and read for luminescence. Results: Polymers are evaluated using the substantivity for biofilm prevention method indicated above for both S. mutans and multispecies saliva derived biofilms.

porcine esterase = experiment: Enzymatic degradation of xylitol polymer by esterase (pH change); assay type: in vitro ADME
Procedure: The method for determining enzymatic breakdown of polymer is determined by Sigma Quality Control Test Procedure: Enzymatic Assay of Esterase. This assay however, exchanges Ethyl Butyrate solution with solution of test polymer. pH change is monitored over time as an indicator of esterase activity and polymer degradation.
Degradation of example polymers is conducted using porcine esterase. Esterase activity decreases the pH of the solution. The pH is monitored at the start and end of the assay (90 minutes).

Compound: O=C(O)CCC(=O)O [succinic acid]
- effect on acid production of S. mutans (change of OD 588 / OD 427, pH), in words (S. mutans (ATCC #25175)): no or little change

Compound: OC[C@@H](O)[C@H](O)[C@@H](O)CO [Xylitol]
- effect on acid production of S. mutans (change of OD 588 / OD 427, pH), in words (S. mutans (ATCC #25175)): acid inhibition at all concentrations tested
- percent reduction from the untreated control [1]: 17%
- percent reduction from the untreated control (S. mutans 25175 biofilm): −1%

Compound: O=C([O-])CN(CCN(CC(=O)[O-])CC(=O)[O-])CC(=O)[O-].[Ca+2].[Na+].[Na+] [Trilon Ca]
- Disruption of 48 hour saliva biofilms after treatment for 5 minutes: Chelate control (48 hour saliva biofilms; Chlorhexidine / Xylitol-EDTA polymer series): −1
- Disruption of 48 hour saliva biofilms after treatment for 5 minutes: Chelate control (48 hour saliva biofilms; e-polylysine / Arginine-Xylitol-Succinic Acid Terpolymer series): −10

Compound: CCCCCCCCCCCCCCCC[n+]1ccccc1 [Cetylpyridinium chloride]
- % decrease in biofilm as compared to growth control (negative indicates increased biofilm) ([2]; % treatment 0.070%): 98%
- % decrease in biofilm as compared to growth control (negative indicates increased biofilm) ([3]; % treatment 0.070%): 100%

Compound: O=C(O)CC(O)(CC(=O)O)C(=O)O [citric acid]
- effect on acid production of S. mutans (change of OD 588 / OD 427, pH), in words (S. mutans (ATCC #25175)): no or little change

Compound: CCOC(C)=O [Ethyl Acetate]
- End pH (porcine esterase; 0.2% (positive control), porcine esterase, end of the assay (90 minutes)): 5.00
- Start pH (porcine esterase; 0.2% (positive control), porcine esterase, start of assay): 8.30

Compound: [H]/N=C(\N/C(=N/[H])NCCCCCCNC(=N)NC(=N)Nc1ccc(Cl)cc1)Nc1ccc(Cl)cc1 [Chlorhexidine, chlorhexidine]
- Disruption of 48 hour saliva biofilms after treatment for 5 minutes: Active control (48 hour saliva biofilms; 0.06% Chlorhexidine): −10^

Compound: O=C(O)CN(CCN(CC(=O)O)CC(=O)O)CC(=O)O [EDTA, ethylenediaminetetraacetic acid]
- substantivity (retention of biofilm prevention activity after rinsing), in words ([2]; observations consistent for both S. mutans and saliva biofilms): also substantive
- % decrease in biofilm as compared to growth control (negative indicates increased biofilm) ([2]; % treatment 0.083%): 17%
- % decrease in biofilm as compared to growth control (negative indicates increased biofilm) ([2]; % treatment 0.165%): 25%
- % decrease in biofilm as compared to growth control (negative indicates increased biofilm) ([2]; % treatment 0.330%): 32%
- % decrease in biofilm as compared to growth control (negative indicates increased biofilm) ([2]; % treatment 0.660%): 60%
- % decrease in biofilm as compared to growth control (negative indicates increased biofilm) ([2]; % treatment 1.320%): 79%
- % decrease in biofilm as compared to growth control (negative indicates increased biofilm) ([3]; % treatment 0.083%): 13%
- % decrease in biofilm as compared to growth control (negative indicates increased biofilm) ([3]; % treatment 0.165%): 37%
- % decrease in biofilm as compared to growth control (negative indicates increased biofilm) ([3]; % treatment 0.330%): 44%
- % decrease in biofilm as compared to growth control (negative indicates increased biofilm) ([3]; % treatment 0.660%): 46%
- % decrease in biofilm as compared to growth control (negative indicates increased biofilm) ([3]; % treatment 1.320%): 41%
- effect on acid production of S. mutans (change of OD 588 / OD 427, pH), in words (S. mutans (ATCC #25175)): no or little change

Compound: Xylitol-Carboxymethyl Cellulose Polymer
- End pH (porcine esterase): 7.47
- Start pH (porcine esterase): 8.37
- degradation by esterase, in words (porcine esterase): degraded by the esterase

Compound: N=C(N)NCCC[C@H](N)C(=O)O [L-Arginine]
- % decrease in biofilm as compared to growth control (negative indicates increased biofilm) ([2]; % treatment 0.070%): −28%
- % decrease in biofilm as compared to growth control (negative indicates increased biofilm) ([2]; % treatment 0.140%): −20%
- % decrease in biofilm as compared to growth control (negative indicates increased biofilm) ([2]; % treatment 0.280%): −24%
- % decrease in biofilm as compared to growth control (negative indicates increased biofilm) ([2]; % treatment 0.560%): −22%
- % decrease in biofilm as compared to growth control (negative indicates increased biofilm) ([2]; % treatment 1.120%): 49%
- % decrease in biofilm as compared to growth control (negative indicates increased biofilm) ([3]; % treatment 0.070%): −40%
- % decrease in biofilm as compared to growth control (negative indicates increased biofilm) ([3]; % treatment 0.140%): −18%
- % decrease in biofilm as compared to growth control (negative indicates increased biofilm) ([3]; % treatment 0.280%): −59%
- % decrease in biofilm as compared to growth control (negative indicates increased biofilm) ([3]; % treatment 0.560%): −53%
- % decrease in biofilm as compared to growth control (negative indicates increased biofilm) ([3]; % treatment 1.120%): −29%
- effect on acid production of S. mutans (change of OD 588 / OD 427, pH), in words (S. mutans (ATCC #25175)): no acid inhibiting effects
